Results as given in patent US8937089B2, “Synergistic mixtures of anthranilamide invertebrate pest control agents” (priority 2004, dated 2015).

Columns and labels:
Test in all cases: whole plant or invertebrate
Format in all cases: in vivo
[1] = tested on: western flower thrip (Frankliniella occidentalis Pergande); conditions: single compound, spray, 7 days
Protocol: (§1) Test compounds were formulated using a solution containing 10% acetone, 90% water and 300 ppm X-77® Spreader Lo-Foam Formula non-ionic surfactant containing alkylarylpolyoxyethylene, free fatty acids, glycols and 2-propanol (Loveland Industries, Inc.) to provide the desired concentration in ppm. Formulated test solutions were then applied in 1 mL volumes through a SUJ2 atomizer nozzle with 1/8 JJ custom body (Spraying Systems Co.) positioned 1.27 cm (0.5 inches) above the top of each test unit.
For evaluating control of the western flower thrip (Frankliniella occidentalis Pergande) through contact and/or systemic means, each test unit consisted of a small open container with a 5- to 7-day-old bean (var. Soleil) plant inside.
Test solutions were formulated and sprayed with 3 replications as described for Test A. After spraying, the test units were allowed to dry for 1 hour, 22 to 27 adult thrips were added to each unit and then a black, screened cap was placed on top. The test units were held for 7 days at 25° C. and 45-55% relative humidity.

[2] = tested on: silverleaf whitefly (Bemisia argentifolii Bellows and Perring); conditions: Table 2B
Excerpt: For evaluating control of silverleaf whitefly (Bemisia argentifolii Bellows and Perring) through contact and/or systemic means, each test unit consisted of a small open container with a 12- to 14-day-old cotton plant inside. This was pre-infested by placing test units into cages infested with adult whiteflies so that oviposition on the cotton leaves could occur. The adults were removed from the plants with an air-blast nozzle, and the test units were capped. The test units were then stored 2 to 3 days before spraying.
as §1
The results for all experimental compositions in this test were replicated three times. After spraying of the formulated test composition, each test unit was allowed to dry for 1 hour and the cap removed. The test units were held for 13 days in a growth chamber at 28° C. and 50-70% relative humidity.

[3] = tested on: green peach aphid (Myzus persicae Sulzer); conditions: Green Peach Aphid; for mortality at 10 ppm / mortality at 100 ppm / mortality at 1000 ppm: Myzus persicae, in Raphanus sativus, read-out: % mortality (obs); for mortality at 10 ppm: rate 10 ppm; for mortality at 100 ppm: rate 100 ppm; for mortality at 1000 ppm: rate 1000 ppm
Protocol: as §1
For evaluating control of green peach aphid (Myzus persicae Sulzer) through contact and/or systemic means, each test unit consisted of a small open container with a 12- to 15-day-old radish plant inside. This was pre-infested by placing on a leaf of the test plant 30 to 40 aphids on a piece of leaf excised from a culture plant (cut-leaf method). The larvae moved onto the test plant as the leaf piece desiccated. After pre-infestation, the soil of the test unit was covered with a layer of sand.
Test compounds were formulated and sprayed as described in Test A, replicated three times. After spraying of the formulated test compound, each test unit was allowed to dry for 1 hour and then a black, screened cap was placed on top. The test units were held for 6 days in a growth chamber at 19-21° C. and 50-70% relative humidity.

[4] = tested on: potato leafhopper (Empoasca fabae Harris); conditions: alone
Protocol: as §1
[…] White sand was added to the top of the soil, and one of the primary leaves was excised prior to application. Test compounds were formulated and sprayed with 3 replications as described for Test A. After spraying, the test units were allowed to dry for 1 hour before they were infested with 5 potato leafhoppers (18- to 21-day-old adults). A black, screened cap was placed on the top of each container. The test units were held for 6 days in a growth chamber at 19-21° C. and 50-70% relative humidity.

[5] = tested on: cotton melon aphid (Aphis gossypii Glover)
Protocol: as §1
For evaluating control of cotton melon aphid (Aphis gossypii Glover) through contact and/or systemic means, each test unit consisted of a small open container with a 6- to 7-day-old cotton plant inside. This was pre-infested by placing on a leaf of the test plant 30 to 40 aphids on a piece of leaf excised from a culture plant (cut-leaf method). The larvae moved onto the test plant as the leaf piece desiccated. After pre-infestation, the soil of the test unit was covered with a layer of sand.
Test compounds were formulated and sprayed as described for Test A. The applications were replicated three times. After spraying of the formulated test compounds, each test unit was allowed to dry for 1 hour and then a black, screened cap was placed on top. The test units were held for 6 days in a growth chamber at 19-21° C. and 50-70% relative humidity.

[6] = tested on: corn planthopper (Peregrines maidis); conditions: Corn Plant Hopper; for mortality at 10 ppm / mortality at 100 ppm / mortality at 1000 ppm: read-out: % mortality (obs); for mortality at 100 ppm: rate 100 ppm; for mortality at 1000 ppm: rate 1000 ppm
Protocol: as §1
For evaluating control of corn planthopper (Peregrines maidis) through contact and/or systemic means, each test unit consisted of a small open cylindrical container with a 3- to 4-day-old corn (maize) plant (spike) inside. White sand was added to the top of the soil prior to application. Test compounds were formulated and sprayed with 3 replications as described for Test A. After spraying, the test units were allowed to dry for 1 hour before they were post-infested with 10 to 20 corn planthoppers (18- to 20-day-old nymphs) by sprinkling them onto the sand with a salt shaker. A black, screened cap was placed on the top of each container. The test units were held for 6 days in a growth chamber at 19-21° C. and 50-70% relative humidity.

[7] = Frankliniella occidentalis, 168 h, rate 10 ppm, read-out: % mortality (obs)
[8] = Frankliniella occidentalis, 168 h, rate 100 ppm, read-out: % mortality (obs)

CC(C)N1C(=O)N(c2ccccc2)CS/C1=N\C(C)(C)C [Buprofezin]
mortality at 10 ppm [1, 7]: 20% | mortality at 100 ppm [1, 8]: 20% | mortality at 1000 ppm ([1]; Frankliniella occidentalis, 168 h, rate 1000 ppm, read-out: % mortality (obs)): 30% | mortality at 300 ppm ([2]; Bemisia argentifolii, in Gossypium hirsutum, rate 300 ppm, read-out: % mortality (obs)): 75% | mortality at 500 ppm ([2]; Bemisia argentifolii, in Gossypium hirsutum, rate 500 ppm, read-out: % mortality (obs)): 65% | mortality at 1000 ppm ([2]; Bemisia argentifolii, in Gossypium hirsutum, rate 1000 ppm, read-out: % mortality (obs)): 96% | mortality at 10 ppm [3]: 63% | mortality at 100 ppm [3]: 63% | mortality at 1000 ppm [3]: 54% | mortality at 10 ppm ([4]; Empoasca fabae, rate 10 ppm, read-out: % mortality (obs)): 20% | mortality at 100 ppm ([4]; Empoasca fabae, rate 100 ppm, read-out: % mortality (obs)): 20% | mortality at 1000 ppm ([4]; Empoasca fabae, rate 1000 ppm, read-out: % mortality (obs)): 0% | mortality at 10 ppm ([5]; Aphis gossypii, rate 10 ppm, read-out: % mortality (obs)): 34% | mortality at 100 ppm ([5]; Aphis gossypii, rate 100 ppm, read-out: % mortality (obs)): 30% | mortality at 1000 ppm ([5]; Aphis gossypii, rate 1000 ppm, read-out: % mortality (obs)): 36% | mortality at 10 ppm ([6]; rate 10 ppm): 96% | mortality at 100 ppm [6]: 97% | mortality at 1000 ppm [6]: 98%

COc1cccc(C(=O)NN(C(=O)c2cc(C)cc(C)c2)C(C)(C)C)c1C [Methoxyfenozide]
mortality at 10 ppm [1, 7]: 60% | mortality at 100 ppm [1, 8]: 60% | mortality at 500 ppm ([1]; Frankliniella occidentalis, 168 h, rate 500 ppm, read-out: % mortality (obs)): 60% | mortality at 2 ppm ([2]; Bemisia argentifolii, in Gossypium hirsutum, rate 2 ppm, read-out: % mortality (obs)): 1% | mortality at 10 ppm ([2]; Bemisia argentifolii, in Gossypium hirsutum, rate 10 ppm, read-out: % mortality (obs)): 2% | mortality at 50 ppm ([2]; Bemisia argentifolii, in Gossypium hirsutum, rate 50 ppm, read-out: % mortality (obs)): 1% | mortality at 10 ppm [3]: 7% | mortality at 100 ppm [3]: 17% | mortality at 1000 ppm [3]: 6% | mortality at 0.08 ppm ([4]; Empoasca fabae, rate 0.08 ppm, read-out: % mortality (obs)): 13% | mortality at 0.4 ppm ([4]; Empoasca fabae, rate 0.4 ppm, read-out: % mortality (obs)): 13% | mortality at 2 ppm ([4]; Empoasca fabae, rate 2 ppm, read-out: % mortality (obs)): 20% | mortality at 5 ppm ([5]; Aphis gossypii, rate 5 ppm, read-out: % mortality (obs)): 32% | mortality at 50 ppm ([5]; Aphis gossypii, rate 50 ppm, read-out: % mortality (obs)): 54% | mortality at 500 ppm ([5]; Aphis gossypii, rate 500 ppm, read-out: % mortality (obs)): 38% | mortality at 10 ppm ([6]; rate 10 ppm): 7% | mortality at 100 ppm [6]: 2% | mortality at 1000 ppm [6]: 10%

Fipronil
% mortality (obs) ([1]; rate 0.5 ppm): 100% | % mortality (obs) ([1]; rate 2 ppm): 100% | % mortality (obs) ([1]; rate 10 ppm): 100% | % mortality (obs) ([2]; rate 50 ppm): 1% | % mortality (obs) ([2]; rate 100 ppm): 0% | % mortality (obs) ([2]; rate 1000 ppm): 13% | % mortality (obs) ([3]; rate 2 ppm): 17% | % mortality (obs) ([3]; rate 4 ppm): 31% | % mortality (obs) ([3]; rate 8 ppm): 50% | % mortality (obs) ([4]; rate 0.5 ppm): 7% | % mortality (obs) ([4]; rate 1 ppm): 20% | % mortality (obs) ([4]; rate 1.5 ppm): 27% | % mortality (obs) ([5]; rate 2 ppm): 27% | % mortality (obs) ([5]; rate 4 ppm): 44% | % mortality (obs) ([5]; rate 8 ppm): 85% | % mortality (obs) ([6]; rate 0.5 ppm): 5% | % mortality (obs) ([6]; rate 1 ppm): 41% | % mortality (obs) ([6]; rate 1.5 ppm): 15%

Thiacloprid
% mortality (obs) ([1]; rate 1 ppm): 20% | % mortality (obs) ([1]; rate 100 ppm): 30% | % mortality (obs) ([1]; rate 3000 ppm): 40% | % mortality (obs) ([2]; rate 15 ppm): 40% | % mortality (obs) ([2]; rate 25 ppm): 83% | % mortality (obs) ([2]; rate 35 ppm): 61% | % mortality (obs) ([3]; rate 0.2 ppm): 13% | % mortality (obs) ([3]; rate 0.3 ppm): 68% | % mortality (obs) ([3]; rate 0.4 ppm): 42% | % mortality (obs) ([4]; rate 0.2 ppm): 73% | % mortality (obs) ([4]; rate 0.5 ppm): 93% | % mortality (obs) ([4]; rate 1.5 ppm): 80% | % mortality (obs) ([5]; rate 0.3 ppm): 50% | % mortality (obs) ([5]; rate 1.5 ppm): 100% | % mortality (obs) ([5]; rate 6 ppm): 100% | % mortality (obs) ([6]; rate 0.3 ppm): 6% | % mortality (obs) ([6]; rate 3 ppm): 100% | % mortality (obs) ([6]; rate 30 ppm): 100%

Pymetrozine
% mortality (obs) ([1]; rate 10 ppm): 100% | % mortality (obs) ([1]; rate 100 ppm): 100% | % mortality (obs) ([1]; rate 1000 ppm): 100% | % mortality (obs) ([2]; rate 10 ppm): 3% | % mortality (obs) ([2]; rate 100 ppm): 7% | % mortality (obs) ([2]; rate 1000 ppm): 52% | % mortality (obs) ([3]; rate 0.1 ppm): 13% | % mortality (obs) ([3]; rate 0.5 ppm): 41% | % mortality (obs) ([3]; rate 2 ppm): 79% | % mortality (obs) ([4]; rate 2 ppm): 0% | % mortality (obs) ([4]; rate 15 ppm): 13% | % mortality (obs) ([4]; rate 200 ppm): 60% | % mortality (obs) ([5]; rate 0.1 ppm): 22% | % mortality (obs) ([5]; rate 0.5 ppm): 38% | % mortality (obs) ([5]; rate 2 ppm): 62% | % mortality (obs) ([6]; rate 2 ppm): 51% | % mortality (obs) ([6]; rate 10 ppm): 29% | % mortality (obs) ([6]; rate 30 ppm): 89%
